# Assay results from patent US9708314B2, “Heterocyclic amide compound” (NISSAN CHEMICAL INDUSTRIES, LTD., priority 2013, dated 2017).
# Experiments:
# Format in all cases: in vivo
# [1] = tested on: Echinochloa oryzacola Vasing.; experiment: Test Example 2: herbicidal activity, application during weed generation in submerged conditions; details: Eighteenth Table; application herbicide amount 320 g/ha
# Procedure, shortened: (§1)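 Post-emergence application under submerged conditions: water-diluted emulsion dosed onto the water surface (g/ha) when weeds reach one- to two-leaf stage. Soil flooded to 4 cm; greenhouse 25–30 °C. Herbicidal ratio graded in six classes, 0 (≤5%) to 5 (≥90%), at three weeks.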
# Monochoria vaginalis = experiment: as above; details: Eighteenth Table; application herbicide amount 320 g/ha
# Procedure, shortened: as §1
# Scirpus juncoides = experiment: as above; details: Eighteenth Table; application herbicide amount 320 g/ha
# Procedure, shortened: as §1
# Lolium multiflorum Lam. = experiment: Test Example 4: herbicidal effect by application to foliage (diluvial soil, plastic box); details: for K (Lolium multiflorum Lam.) herbicidal effect grade: Application herbicide amount 320 g/ha, foliage application; for K: herbicidal effect on Lolium multiflorum Lam.: application to foliage, application herbicide amount 320 g/ha
# Procedure, shortened: (§2)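 Emulsion-formulated compound, diluted to a predetermined g/ha dose, applied by small sprayer to leaves and stems of 14-day-old seedlings grown in sterilized diluvial soil. Effect rated on 0–5 herbicidal-ratio scale three weeks on.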
# Amaranthus retroflexus = experiment: as above; details: for N (Amaranthus retroflexus) herbicidal effect grade: Application herbicide amount 320 g/ha, foliage application; for N: herbicidal effect on Amaranthus retroflexus: application to foliage, application herbicide amount 320 g/ha
# Procedure, shortened: as §2
# Setaria viridis = experiment: as above; details: for G (Setaria viridis) herbicidal effect grade: Application herbicide amount 320 g/ha, foliage application; for G: herbicidal effect on Setaria viridis: application to foliage, application herbicide amount 320 g/ha
# Procedure, shortened: as §2
# Alopecurus myosuroides = experiment: as above; details: for J (Alopecurus myosuroides) herbicidal effect grade: Application herbicide amount 320 g/ha, foliage application; for J: herbicidal effect on Alopecurus myosuroides: application to foliage, application herbicide amount 320 g/ha
# Procedure, shortened: as §2
# Digitaria ciliaris = experiment: as above; details: for F (Digitaria ciliaris) herbicidal effect grade: Application herbicide amount 320 g/ha, foliage application; for F: herbicidal effect on Digitaria ciliaris: application to foliage, application herbicide amount 320 g/ha
# Procedure, shortened: as §2
# Abutilon theophrasti = experiment: as above; details: for M (Abutilon theophrasti) herbicidal effect grade: Application herbicide amount 320 g/ha, foliage application; for M: herbicidal effect on Abutilon theophrasti: application to foliage, application herbicide amount 320 g/ha
# Procedure, shortened: as §2
# Chenopodium album = experiment: as above; details: for O (Chenopodium album) herbicidal effect grade: Application herbicide amount 320 g/ha, foliage application; for O: herbicidal effect on Chenopodium album: application to foliage, application herbicide amount 320 g/ha
# Procedure, shortened: as §2
# Veronica persica = experiment: as above; details: for R (Veronica persica) herbicidal effect grade: Application herbicide amount 320 g/ha, foliage application; for R: herbicidal effect on Veronica persica: application to foliage, application herbicide amount 320 g/ha
# Procedure, shortened: as §2
# Avena fatua = experiment: as above; details: for I (Avena fatua) herbicidal effect grade: Application herbicide amount 320 g/ha, foliage application; for I: herbicidal effect on Avena fatua: application to foliage, application herbicide amount 320 g/ha
# Procedure, shortened: as §2
# Apera spica-venti. = experiment: as above; details: for L (Apera spica-venti.) herbicidal effect grade: Application herbicide amount 320 g/ha, foliage application; for L: herbicidal effect on Apera spica-venti.: application to foliage, application herbicide amount 320 g/ha
# Procedure, shortened: as §2
# [2] = tested on: Echinochloa crus-galli var. crus-galli; experiment: as above; details: for H (Echinochloa crus-galli var. crus-galli) herbicidal effect grade: Application herbicide amount 320 g/ha, foliage application; for H: herbicidal effect on Echinochloa crus-galli var. crus-galli: application to foliage, application herbicide amount 320 g/ha
# Procedure, shortened: as §2
# Galium spurium = experiment: as above; details: for Q (Galium spurium) herbicidal effect grade: Application herbicide amount 320 g/ha, foliage application; for Q: herbicidal effect on Galium spurium: application to foliage, application herbicide amount 320 g/ha
# Procedure, shortened: as §2
structure (smiles),measurement,setting,value
Cc1nnc(NC(=O)c2ccc(C(F)(F)F)n3c(N(C)CCC#N)nnc23)o1 [1-153],A (Echinochloa oryzicola Vasing.) herbicidal ratio grade,[1],3 (Herbicidal ratio of 40% or more and less than 70%)
same,C (Monochoria vaginalis) herbicidal ratio grade,Monochoria vaginalis,3 (Herbicidal ratio of 40% or more and less than 70%)
same,B (Scirpus juncoides) herbicidal ratio grade,Scirpus juncoides,3 (Herbicidal ratio of 40% or more and less than 70%)
same,K (Lolium multiflorum Lam.) herbicidal effect grade,Lolium multiflorum Lam.,1 (Herbicidal ratio of 5% or more and less than 20%)
same,N (Amaranthus retroflexus) herbicidal effect grade,Amaranthus retroflexus,4 (Herbicidal ratio of 70% or more and less than 90%)
same,G (Setaria viridis) herbicidal effect grade,Setaria viridis,4 (Herbicidal ratio of 70% or more and less than 90%)
same,J (Alopecurus myosuroides) herbicidal effect grade,Alopecurus myosuroides,1 (Herbicidal ratio of 5% or more and less than 20%)
same,F (Digitaria ciliaris) herbicidal effect grade,Digitaria ciliaris,4 (Herbicidal ratio of 70% or more and less than 90%)
same,M (Abutilon theophrasti) herbicidal effect grade,Abutilon theophrasti,3 (Herbicidal ratio of 40% or more and less than 70%)
same,O (Chenopodium album) herbicidal effect grade,Chenopodium album,5 (Herbicidal ratio of 90% or more (almost completely withered))
same,R (Veronica persica) herbicidal effect grade,Veronica persica,4 (Herbicidal ratio of 70% or more and less than 90%)
same,I (Avena fatua) herbicidal effect grade,Avena fatua,3 (Herbicidal ratio of 40% or more and less than 70%)
same,L (Apera spica-venti.) herbicidal effect grade,Apera spica-venti.,2 (Herbicidal ratio of 20% or more and less than 40%)
same,H (Echinochloa crus-galli var. crus-galli) herbicidal effect grade,[2],5 (Herbicidal ratio of 90% or more (almost completely withered))
same,Q (Galium spurium) herbicidal effect grade,Galium spurium,4 (Herbicidal ratio of 70% or more and less than 90%)
CCC(CC)c1nnc2c(C(=O)Nc3nnnn3C)ccc(C(F)(F)F)n12 [2-006],A (Echinochloa oryzicola Vasing.) herbicidal ratio grade,[1],5 (Herbicidal ratio of 90% or more (almost completely withered))
same,C (Monochoria vaginalis) herbicidal ratio grade,Monochoria vaginalis,5 (Herbicidal ratio of 90% or more (almost completely withered))
same,B (Scirpus juncoides) herbicidal ratio grade,Scirpus juncoides,5 (Herbicidal ratio of 90% or more (almost completely withered))
same,K: herbicidal effect on Lolium multiflorum Lam.,Lolium multiflorum Lam.,1 (Herbicidal ratio of 5% or more and less than 20%)
same,N: herbicidal effect on Amaranthus retroflexus,Amaranthus retroflexus,5 (Herbicidal ratio of 90% or more (almost completely withered))
same,G: herbicidal effect on Setaria viridis,Setaria viridis,5 (Herbicidal ratio of 90% or more (almost completely withered))
same,J: herbicidal effect on Alopecurus myosuroides,Alopecurus myosuroides,2 (Herbicidal ratio of 20% or more and less than 40%)
same,F: herbicidal effect on Digitaria ciliaris,Digitaria ciliaris,5 (Herbicidal ratio of 90% or more (almost completely withered))
same,M: herbicidal effect on Abutilon theophrasti,Abutilon theophrasti,5 (Herbicidal ratio of 90% or more (almost completely withered))
same,O: herbicidal effect on Chenopodium album,Chenopodium album,5 (Herbicidal ratio of 90% or more (almost completely withered))
same,R: herbicidal effect on Veronica persica,Veronica persica,5 (Herbicidal ratio of 90% or more (almost completely withered))
same,I: herbicidal effect on Avena fatua,Avena fatua,3 (Herbicidal ratio of 40% or more and less than 70%)
same,L: herbicidal effect on Apera spica-venti.,Apera spica-venti.,4 (Herbicidal ratio of 70% or more and less than 90%)
same,H: herbicidal effect on Echinochloa crus-galli var. crus-galli,[2],5 (Herbicidal ratio of 90% or more (almost completely withered))
same,Q: herbicidal effect on Galium spurium,Galium spurium,3 (Herbicidal ratio of 40% or more and less than 70%)
Cn1nnnc1NC(=O)c1ccc(C(F)(F)F)n2c(C3CCOC3)nnc12 (stereo not drawn) [2-022],A (Echinochloa oryzicola Vasing.) herbicidal ratio grade,[1],5 (Herbicidal ratio of 90% or more (almost completely withered))
same,C (Monochoria vaginalis) herbicidal ratio grade,Monochoria vaginalis,4 (Herbicidal ratio of 70% or more and less than 90%)
same,B (Scirpus juncoides) herbicidal ratio grade,Scirpus juncoides,5 (Herbicidal ratio of 90% or more (almost completely withered))
same,K: herbicidal effect on Lolium multiflorum Lam.,Lolium multiflorum Lam.,3 (Herbicidal ratio of 40% or more and less than 70%)
same,N: herbicidal effect on Amaranthus retroflexus,Amaranthus retroflexus,5 (Herbicidal ratio of 90% or more (almost completely withered))
same,G: herbicidal effect on Setaria viridis,Setaria viridis,5 (Herbicidal ratio of 90% or more (almost completely withered))
same,J: herbicidal effect on Alopecurus myosuroides,Alopecurus myosuroides,3 (Herbicidal ratio of 40% or more and less than 70%)
same,F: herbicidal effect on Digitaria ciliaris,Digitaria ciliaris,4 (Herbicidal ratio of 70% or more and less than 90%)
same,M: herbicidal effect on Abutilon theophrasti,Abutilon theophrasti,5 (Herbicidal ratio of 90% or more (almost completely withered))
same,O: herbicidal effect on Chenopodium album,Chenopodium album,5 (Herbicidal ratio of 90% or more (almost completely withered))
same,R: herbicidal effect on Veronica persica,Veronica persica,5 (Herbicidal ratio of 90% or more (almost completely withered))
same,I: herbicidal effect on Avena fatua,Avena fatua,4 (Herbicidal ratio of 70% or more and less than 90%)
same,L: herbicidal effect on Apera spica-venti.,Apera spica-venti.,5 (Herbicidal ratio of 90% or more (almost completely withered))
same,H: herbicidal effect on Echinochloa crus-galli var. crus-galli,[2],5 (Herbicidal ratio of 90% or more (almost completely withered))
same,Q: herbicidal effect on Galium spurium,Galium spurium,4 (Herbicidal ratio of 70% or more and less than 90%)
CCC(CC)c1nnc2c(C(=O)Nc3nnco3)ccc(C(F)(F)F)n12 [1-145],A (Echinochloa oryzicola Vasing.) herbicidal ratio grade,[1],4 (Herbicidal ratio of 70% or more and less than 90%)
same,C (Monochoria vaginalis) herbicidal ratio grade,Monochoria vaginalis,4 (Herbicidal ratio of 70% or more and less than 90%)
same,B (Scirpus juncoides) herbicidal ratio grade,Scirpus juncoides,4 (Herbicidal ratio of 70% or more and less than 90%)
same,K (Lolium multiflorum Lam.) herbicidal effect grade,Lolium multiflorum Lam.,2 (Herbicidal ratio of 20% or more and less than 40%)
same,N (Amaranthus retroflexus) herbicidal effect grade,Amaranthus retroflexus,4 (Herbicidal ratio of 70% or more and less than 90%)
same,G (Setaria viridis) herbicidal effect grade,Setaria viridis,4 (Herbicidal ratio of 70% or more and less than 90%)
same,J (Alopecurus myosuroides) herbicidal effect grade,Alopecurus myosuroides,1 (Herbicidal ratio of 5% or more and less than 20%)
same,F (Digitaria ciliaris) herbicidal effect grade,Digitaria ciliaris,5 (Herbicidal ratio of 90% or more (almost completely withered))
same,M (Abutilon theophrasti) herbicidal effect grade,Abutilon theophrasti,3 (Herbicidal ratio of 40% or more and less than 70%)
same,O (Chenopodium album) herbicidal effect grade,Chenopodium album,5 (Herbicidal ratio of 90% or more (almost completely withered))
same,R (Veronica persica) herbicidal effect grade,Veronica persica,5 (Herbicidal ratio of 90% or more (almost completely withered))
same,I (Avena fatua) herbicidal effect grade,Avena fatua,3 (Herbicidal ratio of 40% or more and less than 70%)
same,L (Apera spica-venti.) herbicidal effect grade,Apera spica-venti.,3 (Herbicidal ratio of 40% or more and less than 70%)
same,H (Echinochloa crus-galli var. crus-galli) herbicidal effect grade,[2],5 (Herbicidal ratio of 90% or more (almost completely withered))
same,Q (Galium spurium) herbicidal effect grade,Galium spurium,1 (Herbicidal ratio of 5% or more and less than 20%)
O=C(Nc1nnco1)c1ccc(C(F)(F)F)n2c(-c3ccc(F)cc3)nnc12 [1-147],A (Echinochloa oryzicola Vasing.) herbicidal ratio grade,[1],4 (Herbicidal ratio of 70% or more and less than 90%)
same,C (Monochoria vaginalis) herbicidal ratio grade,Monochoria vaginalis,3 (Herbicidal ratio of 40% or more and less than 70%)
same,B (Scirpus juncoides) herbicidal ratio grade,Scirpus juncoides,2 (Herbicidal ratio of 20% or more and less than 40%)
same,K (Lolium multiflorum Lam.) herbicidal effect grade,Lolium multiflorum Lam.,3 (Herbicidal ratio of 40% or more and less than 70%)
same,N (Amaranthus retroflexus) herbicidal effect grade,Amaranthus retroflexus,4 (Herbicidal ratio of 70% or more and less than 90%)
same,G (Setaria viridis) herbicidal effect grade,Setaria viridis,3 (Herbicidal ratio of 40% or more and less than 70%)
same,J (Alopecurus myosuroides) herbicidal effect grade,Alopecurus myosuroides,2 (Herbicidal ratio of 20% or more and less than 40%)
same,F (Digitaria ciliaris) herbicidal effect grade,Digitaria ciliaris,4 (Herbicidal ratio of 70% or more and less than 90%)
same,M (Abutilon theophrasti) herbicidal effect grade,Abutilon theophrasti,3 (Herbicidal ratio of 40% or more and less than 70%)
same,O (Chenopodium album) herbicidal effect grade,Chenopodium album,5 (Herbicidal ratio of 90% or more (almost completely withered))
same,R (Veronica persica) herbicidal effect grade,Veronica persica,5 (Herbicidal ratio of 90% or more (almost completely withered))
same,I (Avena fatua) herbicidal effect grade,Avena fatua,3 (Herbicidal ratio of 40% or more and less than 70%)
same,L (Apera spica-venti.) herbicidal effect grade,Apera spica-venti.,3 (Herbicidal ratio of 40% or more and less than 70%)
same,H (Echinochloa crus-galli var. crus-galli) herbicidal effect grade,[2],4 (Herbicidal ratio of 70% or more and less than 90%)
same,Q (Galium spurium) herbicidal effect grade,Galium spurium,3 (Herbicidal ratio of 40% or more and less than 70%)
